{"source": "ChEMBL document CHEMBL4673368", "about": "“Ophiobolin Sesterterpenoids and Farnesylated Phthalide Derivatives from the Deep Sea Cold-Seep-Derived Fungus Aspergillus insuetus SD-512” (2020)", "type_in_all_cases": "functional", "key": {"Aeromonas hydrophila": {"test_system": "Aeromonas hydrophila", "test": "Antibacterial activity against Aeromonas hydrophila QDIO-10 assessed as reduction in microbial growth after 24 hrs by serial dilution method"}, "Pseudomonas aeruginosa": {"test_system": "Pseudomonas aeruginosa", "test": "Antibacterial activity against Pseudomonas aeruginosa QDIO-2 assessed as reduction in microbial growth after 24 hrs by serial dilution method"}, "Edwardsiella tarda": {"test_system": "Edwardsiella tarda", "test": "Antibacterial activity against Edwardsiella tarda QDIO-8 assessed as reduction in microbial growth after 24 hrs by serial dilution method"}, "Vibrio parahaemolyticus": {"test_system": "Vibrio parahaemolyticus", "test": "Antibacterial activity against Vibrio parahaemolyticus QDIO-5 assessed as reduction in microbial growth after 24 hrs by serial dilution method"}, "Vibrio alginolyticus": {"test_system": "Vibrio alginolyticus", "test": "Antibacterial activity against Vibrio alginolyticus QDIO-7 assessed as reduction in microbial growth after 24 hrs by serial dilution method"}, "Vibrio vulnificus": {"test_system": "Vibrio vulnificus", "test": "Antibacterial activity against Vibrio vulnificus QDIO-4 assessed as reduction in microbial growth after 24 hrs by serial dilution method"}, "Vibrio anguillarum": {"test_system": "Vibrio anguillarum", "test": "Antibacterial activity against Vibrio anguillarum QDIO-9 assessed as reduction in microbial growth after 24 hrs by serial dilution method"}, "Escherichia coli": {"test_system": "Escherichia coli", "test": "Antibacterial activity against Escherichia coli QDIO-1 assessed as reduction in microbial growth after 24 hrs by serial dilution method"}}, "data": [{"molecule": "O=C(N[C@H](CO)[C@H](O)c1ccc([N+](=O)[O-])cc1)C(Cl)Cl", "note": "[CHLORAMPHENICOL]", "values": [{"measurement": "MIC", "setting": "Aeromonas hydrophila", "value": 1, "unit": "µg/mL"}, {"measurement": "MIC", "setting": "Pseudomonas aeruginosa", "value": 1, "unit": "µg/mL"}, {"measurement": "MIC", "setting": "Edwardsiella tarda", "value": 0.5, "unit": "µg/mL"}, {"measurement": "MIC", "setting": "Vibrio parahaemolyticus", "value": 1, "unit": "µg/mL"}, {"measurement": "MIC", "setting": "Vibrio alginolyticus", "value": 0.5, "unit": "µg/mL"}, {"measurement": "MIC", "setting": "Vibrio vulnificus", "value": 0.5, "unit": "µg/mL"}, {"measurement": "MIC", "setting": "Vibrio anguillarum", "value": 0.5, "unit": "µg/mL"}, {"measurement": "MIC", "setting": "Escherichia coli", "value": 1, "unit": "µg/mL"}]}, {"molecule": "CC(C)=CCC[C@H](C)[C@H]1CC[C@]2(C)C[C@H]3[C@@H]4/C(=C\\C[C@@H]12)CO[C@]4(O)C[C@@]3(C)O", "values": [{"measurement": "MIC", "setting": "Aeromonas hydrophila", "value": "> 32", "unit": "µg/mL"}, {"measurement": "MIC", "setting": "Pseudomonas aeruginosa", "value": "> 32", "unit": "µg/mL"}, {"measurement": "MIC", "setting": "Edwardsiella tarda", "value": "> 32", "unit": "µg/mL"}, {"measurement": "MIC", "setting": "Vibrio parahaemolyticus", "value": "> 32", "unit": "µg/mL"}, {"measurement": "MIC", "setting": "Vibrio alginolyticus", "value": "> 32", "unit": "µg/mL"}, {"measurement": "MIC", "setting": "Vibrio vulnificus", "value": "> 32", "unit": "µg/mL"}, {"measurement": "MIC", "setting": "Vibrio anguillarum", "value": "> 32", "unit": "µg/mL"}, {"measurement": "MIC", "setting": "Escherichia coli", "value": "> 32", "unit": "µg/mL"}]}, {"molecule": "COc1cc2c(c(O)c1OC/C=C(\\C)CC/C=C(\\C)CCC=C(C)C)COC2=O", "values": [{"measurement": "MIC", "setting": "Aeromonas hydrophila", "value": 8, "unit": "µg/mL"}, {"measurement": "MIC", "setting": "Pseudomonas aeruginosa", "value": 16, "unit": "µg/mL"}, {"measurement": "MIC", "setting": "Edwardsiella tarda", "value": 8, "unit": "µg/mL"}, {"measurement": "MIC", "setting": "Vibrio parahaemolyticus", "value": 16, "unit": "µg/mL"}, {"measurement": "MIC", "setting": "Vibrio alginolyticus", "value": 4, "unit": "µg/mL"}, {"measurement": "MIC", "setting": "Vibrio vulnificus", "value": 4, "unit": "µg/mL"}, {"measurement": "MIC", "setting": "Vibrio anguillarum", "value": "> 32", "unit": "µg/mL"}, {"measurement": "MIC", "setting": "Escherichia coli", "value": 32, "unit": "µg/mL"}]}, {"molecule": "COc1cc2c(c(O)c1OC/C=C(\\C)CC/C=C(\\C)CCCC(C)(C)O)COC2=O", "values": [{"measurement": "MIC", "setting": "Aeromonas hydrophila", "value": 16, "unit": "µg/mL"}, {"measurement": "MIC", "setting": "Pseudomonas aeruginosa", "value": 16, "unit": "µg/mL"}, {"measurement": "MIC", "setting": "Edwardsiella tarda", "value": 8, "unit": "µg/mL"}, {"measurement": "MIC", "setting": "Vibrio parahaemolyticus", "value": 16, "unit": "µg/mL"}, {"measurement": "MIC", "setting": "Vibrio alginolyticus", "value": 8, "unit": "µg/mL"}, {"measurement": "MIC", "setting": "Vibrio vulnificus", "value": 4, "unit": "µg/mL"}, {"measurement": "MIC", "setting": "Vibrio anguillarum", "value": "> 32", "unit": "µg/mL"}, {"measurement": "MIC", "setting": "Escherichia coli", "value": 32, "unit": "µg/mL"}]}, {"molecule": "CO[C@]12C[C@@](C)(O)[C@H]3C[C@@]4(C)CC[C@H]([C@@H](C)/C=C\\C=C(C)C)[C@@H]4C/C=C(/CO1)[C@@]32O", "values": [{"measurement": "MIC", "setting": "Aeromonas hydrophila", "value": "> 32", "unit": "µg/mL"}, {"measurement": "MIC", "setting": "Pseudomonas aeruginosa", "value": "> 32", "unit": "µg/mL"}, {"measurement": "MIC", "setting": "Edwardsiella tarda", "value": "> 32", "unit": "µg/mL"}, {"measurement": "MIC", "setting": "Vibrio parahaemolyticus", "value": "> 32", "unit": "µg/mL"}, {"measurement": "MIC", "setting": "Vibrio alginolyticus", "value": "> 32", "unit": "µg/mL"}, {"measurement": "MIC", "setting": "Vibrio vulnificus", "value": "> 32", "unit": "µg/mL"}, {"measurement": "MIC", "setting": "Vibrio anguillarum", "value": "> 32", "unit": "µg/mL"}, {"measurement": "MIC", "setting": "Escherichia coli", "value": "> 32", "unit": "µg/mL"}]}, {"molecule": "CC(C)=CCC[C@H](C)[C@H]1CC[C@]2(C)C[C@H]3[C@H]4/C(=C\\C[C@@H]12)CO[C@@]4(O)C[C@@]3(C)O", "values": [{"measurement": "MIC", "setting": "Aeromonas hydrophila", "value": 4, "unit": "µg/mL"}, {"measurement": "MIC", "setting": "Pseudomonas aeruginosa", "value": 8, "unit": "µg/mL"}, {"measurement": "MIC", "setting": "Edwardsiella tarda", "value": 4, "unit": "µg/mL"}, {"measurement": "MIC", "setting": "Vibrio parahaemolyticus", "value": 4, "unit": "µg/mL"}, {"measurement": "MIC", "setting": "Vibrio alginolyticus", "value": 4, "unit": "µg/mL"}, {"measurement": "MIC", "setting": "Vibrio vulnificus", "value": 8, "unit": "µg/mL"}, {"measurement": "MIC", "setting": "Vibrio anguillarum", "value": 32, "unit": "µg/mL"}, {"measurement": "MIC", "setting": "Escherichia coli", "value": 4, "unit": "µg/mL"}]}, {"molecule": "CC(C)=C/C=C\\[C@H](C)[C@H]1CC[C@]2(C)C[C@@H]3C(C)=CC(=O)[C@H]3/C(C=O)=C\\C[C@@H]12", "values": [{"measurement": "MIC", "setting": "Aeromonas hydrophila", "value": 8, "unit": "µg/mL"}, {"measurement": "MIC", "setting": "Pseudomonas aeruginosa", "value": 8, "unit": "µg/mL"}, {"measurement": "MIC", "setting": "Edwardsiella tarda", "value": 8, "unit": "µg/mL"}, {"measurement": "MIC", "setting": "Vibrio parahaemolyticus", "value": 8, "unit": "µg/mL"}, {"measurement": "MIC", "setting": "Vibrio alginolyticus", "value": 4, "unit": "µg/mL"}, {"measurement": "MIC", "setting": "Vibrio vulnificus", "value": 8, "unit": "µg/mL"}, {"measurement": "MIC", "setting": "Vibrio anguillarum", "value": 32, "unit": "µg/mL"}, {"measurement": "MIC", "setting": "Escherichia coli", "value": 16, "unit": "µg/mL"}]}, {"molecule": "CC(C)=C/C=C\\[C@H](C)[C@H]1CC[C@]2(C)C[C@H]3[C@@H]4/C(=C\\C[C@@H]12)CO[C@]4(O)C[C@@]3(C)O", "values": [{"measurement": "MIC", "setting": "Aeromonas hydrophila", "value": "> 32", "unit": "µg/mL"}, {"measurement": "MIC", "setting": "Pseudomonas aeruginosa", "value": "> 32", "unit": "µg/mL"}, {"measurement": "MIC", "setting": "Edwardsiella tarda", "value": "> 32", "unit": "µg/mL"}, {"measurement": "MIC", "setting": "Vibrio parahaemolyticus", "value": "> 32", "unit": "µg/mL"}, {"measurement": "MIC", "setting": "Vibrio alginolyticus", "value": "> 32", "unit": "µg/mL"}, {"measurement": "MIC", "setting": "Vibrio vulnificus", "value": "> 32", "unit": "µg/mL"}, {"measurement": "MIC", "setting": "Vibrio anguillarum", "value": "> 32", "unit": "µg/mL"}, {"measurement": "MIC", "setting": "Escherichia coli", "value": "> 32", "unit": "µg/mL"}]}, {"molecule": "CC(C)=CCC[C@H](C)[C@H]1CC[C@]2(C)C[C@@H]3C(C)=CC(=O)[C@H]3/C(CO)=C\\C[C@@H]12", "values": [{"measurement": "MIC", "setting": "Aeromonas hydrophila", "value": "> 32", "unit": "µg/mL"}, {"measurement": "MIC", "setting": "Pseudomonas aeruginosa", "value": "> 32", "unit": "µg/mL"}, {"measurement": "MIC", "setting": "Edwardsiella tarda", "value": "> 32", "unit": "µg/mL"}, {"measurement": "MIC", "setting": "Vibrio parahaemolyticus", "value": "> 32", "unit": "µg/mL"}, {"measurement": "MIC", "setting": "Vibrio alginolyticus", "value": "> 32", "unit": "µg/mL"}, {"measurement": "MIC", "setting": "Vibrio vulnificus", "value": "> 32", "unit": "µg/mL"}, {"measurement": "MIC", "setting": "Vibrio anguillarum", "value": "> 32", "unit": "µg/mL"}, {"measurement": "MIC", "setting": "Escherichia coli", "value": "> 32", "unit": "µg/mL"}]}, {"molecule": "CC(C)=CCC[C@H](C)[C@H]1CC[C@]2(C)C[C@@H]3C(C)=CC(=O)[C@H]3/C(C=O)=C\\C[C@@H]12", "values": [{"measurement": "MIC", "setting": "Aeromonas hydrophila", "value": "> 32", "unit": "µg/mL"}, {"measurement": "MIC", "setting": "Pseudomonas aeruginosa", "value": "> 32", "unit": "µg/mL"}, {"measurement": "MIC", "setting": "Edwardsiella tarda", "value": "> 32", "unit": "µg/mL"}, {"measurement": "MIC", "setting": "Vibrio parahaemolyticus", "value": "> 32", "unit": "µg/mL"}, {"measurement": "MIC", "setting": "Vibrio alginolyticus", "value": "> 32", "unit": "µg/mL"}, {"measurement": "MIC", "setting": "Vibrio vulnificus", "value": "> 32", "unit": "µg/mL"}, {"measurement": "MIC", "setting": "Vibrio anguillarum", "value": "> 32", "unit": "µg/mL"}, {"measurement": "MIC", "setting": "Escherichia coli", "value": "> 32", "unit": "µg/mL"}]}, {"molecule": "COc1cc2c(c(O)c1OC/C=C(\\C)CC/C=C(\\C)CCCC(C)(C)OC(C)=O)COC2=O", "values": [{"measurement": "MIC", "setting": "Aeromonas hydrophila", "value": 8, "unit": "µg/mL"}, {"measurement": "MIC", "setting": "Pseudomonas aeruginosa", "value": 8, "unit": "µg/mL"}, {"measurement": "MIC", "setting": "Edwardsiella tarda", "value": 4, "unit": "µg/mL"}, {"measurement": "MIC", "setting": "Vibrio parahaemolyticus", "value": 8, "unit": "µg/mL"}, {"measurement": "MIC", "setting": "Vibrio alginolyticus", "value": 4, "unit": "µg/mL"}, {"measurement": "MIC", "setting": "Vibrio vulnificus", "value": 4, "unit": "µg/mL"}, {"measurement": "MIC", "setting": "Vibrio anguillarum", "value": "> 32", "unit": "µg/mL"}, {"measurement": "MIC", "setting": "Escherichia coli", "value": 32, "unit": "µg/mL"}]}, {"molecule": "CC(C)=C/C=C\\[C@H](C)[C@H]1CC[C@]2(C)C[C@@H]3C(C)=CC(=O)[C@H]3/C(CO)=C\\C[C@@H]12", "values": [{"measurement": "MIC", "setting": "Aeromonas hydrophila", "value": 8, "unit": "µg/mL"}, {"measurement": "MIC", "setting": "Pseudomonas aeruginosa", "value": 8, "unit": "µg/mL"}, {"measurement": "MIC", "setting": "Edwardsiella tarda", "value": 8, "unit": "µg/mL"}, {"measurement": "MIC", "setting": "Vibrio parahaemolyticus", "value": 8, "unit": "µg/mL"}, {"measurement": "MIC", "setting": "Vibrio alginolyticus", "value": 4, "unit": "µg/mL"}, {"measurement": "MIC", "setting": "Vibrio vulnificus", "value": 8, "unit": "µg/mL"}, {"measurement": "MIC", "setting": "Vibrio anguillarum", "value": 32, "unit": "µg/mL"}, {"measurement": "MIC", "setting": "Escherichia coli", "value": 16, "unit": "µg/mL"}]}]}
